Source: patent US4810699A, “Substituted 1,3,4,9-tetrahydropyrano[3,4,-b]indole-1-acetic acids, pharmaceutical compositions containing them, and methods for treating inflammatory conditions and for analgesic purposes using them” (American Home Products Corporation, priority 1987, dated 1989)

How the values were obtained:
[1] = system: Phenylbenzoquinone-induced Writhing; test: Drug Effects on Phenylbenzoquinone-induced Writhing in Mice; assay type: in vivo, Male Swiss albino mice; details: mouse, p.o., 60 min before PBQ i.p.; for Phenylquinone Writhing in Mice, percent inhibition: dose 10 mg/kg; for ED50: po, read-out: Phenylquinone Writhing in Mice ED50
Description: A further test used to determine the utility of the compounds of the present invention is designated: Drug Effects on Phenylbenzoquinone-induced Writhing in Mice
The objective of this test is to determine the ability of test drugs to inhibit the nociceptive (pain) response of mice injected with a chemical irritant. This test is a primary screen for both peripheral and centrally acting analgesic drugs.
Male Swiss albino mice (15-25 g). The animals are fasted for 18 hours prior to use but have free access to water.
Drug Preparation and Administration:
Drugs are dissolved or suspended according to their solubility in 0.5% Tween 80 in distilled water. They are administered by gastric gavage in a volume of 5 mL/kg. For primary screening all drugs are administered at the arbitrary dosage of 25 mg/kg, p.o. to a group of 10 mice.
A modification of the method of Siegmund et al, Proc. Soc. Exp. Biol. Med., 95, 729-731 (1957) is used. Groups of 5 mice are dosed with the test compound or vehicle control. Sixty minutes later the animals are injected i.p. with 0.3 mL/20 g body weight of a 0.02% solution of phenylbenzoquinone (PBQ; 2-phenyl-1,4-benzoquinone) and placed in individual observation boxes. The number of writhing or abdominal squirming movements made by each mouse during the following 15 min. period is counted. The experiment is repeated with another group of 5 mice and the mean number of writhes per mouse for a group of 10 mice is calculated.
Drug treated and vehicle-treated control groups are compared and the percentage protection conferred by the drug is calculated: [formula] where c=mean number of writhes in the control group
t=mean number of writhes in the test drug group

[2] = system: Adjuvant Edema; test: Preventative Adjuvant Edema; assay type: in vivo, Male Sprague Dawley rats; details: rat; for ED50: po, days 0, 1 and 2; for Preventative Adjuvant Edema, percent inhibition: p.o.
Description: This test is a primary screen for anti-inflammatory drugs.
Male Sprague Dawley rats (180-200 g) are used. The animals have free access to water but food is withdrawn 18 hours before testing.
Drug Preparations and Administration:
Freund's complete adjuvant is prepared by suspending 5 mg of killed and dried Mycobacterium butyricum (Difco) in 1 mL mineral oil. The test compound are dissolved, or suspended in 0.5% Tween 80 in distilled water according to their solubility. For primary screening all drugs are administered by gastric lavage at the arbitrary dosage of 25 mg/kg, p.o. in a volume of 0.5 mL/100 g body weight to groups of 10 animals.
The method is essentially that described by Wax et al, J. Pharmacol. Exp. Ther., 192, 166-171 (1975). Groups of rats are injected intradermally in the left hind paw with 0.1 mL of Freund's complete adjuvant. The test compound or vehicle is administered immediately before the adjuvant, 24 hours and 48 hours after the adjuvant (days 0, 1 and 2). The injected hind paw volume is measured before the injection of adjuvant and 24 hrs. after the last drug administration (day 3) by means of a plethysmometer (Buxco Electronics Inc.). The difference between the hind paw volume on day 0 and day 3 represents the edema volume. Etodolac (25 mg/kg, p.o.) is included as a positive control.
The mean edema volume (expressed as mL±SEM) is calculated for each group and the percentage protection conferred by the drug is calculated: [formula] where c is the mean edema volume for the vehicle-treated (0.5% Tween 80 in distilled water) controls and t is the mean edema volume for the drug treated group.

| Structure (SMILES) | Phenylquinone Writhing in Mice, percent inhibition [1] [%] | Preventative Adjuvant Edema, percent inhibition ([2]; dose 25 mg/kg) [%] | further results |
| --- | --- | --- | --- |
| CCC1(CC(=O)O)OCCc2c1[nH]c1c(OCC(F)(F)F)ccc(C)c21 (stereo not drawn) [Example 1, 1-Ethyl-1,3,4,9-tetrahydro-5-methyl-8-(2,2,2-trifluoroethoxy)pyrano[3,4-b]indole-1-acetic Acid] | 34 | – | ED50 [2]: 16.4 mg/kg |
| CCC1(CC(=O)O)OCCc2c1[nH]c1c(OCC(F)(F)F)c(Cl)ccc21 (stereo not drawn) [Example 2, 7-Chloro-1-ethyl-1,3,4,9-tetrahydro-8-(2,2,2-trifluoroethoxy)pyrano[3,4-b]indole-1-acetic Acid] | – | – | ED50 [1]: 77 mg/kg; Preventative Adjuvant Edema, percent inhibition ([2]; dose 3 mg/kg): 50% |
| CCC1(CC(=O)O)OCCc2c1[nH]c1c(OCC(F)(F)F)ccc(F)c21 (stereo not drawn) [Example 3, 1-ethyl-5-fluoro-1,3,4,9-tetrahydro-8-(2,2,2-trifluoroethoxy)-pyrano[3,4-b]indole-1-acetic acid] | 18 | 70 | – |
| CCC1(CC(=O)O)OCCc2c1[nH]c1c(OCC(F)(F)F)c(F)ccc21 (stereo not drawn) [Example 4, 7-fluoro-1-ethyl-1,3,4,9-tetrahydro-8-(2,2,2-trifluoroethoxy)-pyrano[3,4-b]indole-1-acetic acid] | 0 | – | Preventative Adjuvant Edema, percent inhibition ([2]; dose 10 mg/kg): 83% |
| CCC1(CC(=O)O)OCCc2c1[nH]c1c(OC(C)C(F)(F)F)c(Cl)ccc21 (stereo not drawn) [Example 5, 7-chloro-1-ethyl-1,3,4,9-tetrahydro-8-(1-methyl-2,2,2-trifluoroethoxy)-pyrano[3,4-b]indole-1-acetic acid] | 31 | 41 | – |
| CCC1(CC(=O)O)OCCc2c1[nH]c1c(OCC(F)(F)F)cccc21 (stereo not drawn) [Example 6, 1-Ethyl-1,3,4,9-tetrahydro-8-(2,2,2-trifluoroethoxy)pyrano[3,4-b]indole-1-acetic Acid] | – | – | ED50 [1]: > 200 mg/kg; ED50 [2]: 4.3 mg/kg |
| C=CCOc1cccc2c3c([nH]c12)C(CC)(CC(=O)O)OCC3 (stereo not drawn) [Example 7, 1-ethyl-1,3,4,9-tetrahydro-8-[(2-propenyl)oxy]-pyrano[3,4-b]indole-1-aceticacid] | 18 | 41 | – |
| C#CCOc1cccc2c3c([nH]c12)C(CC)(CC(=O)O)OCC3 (stereo not drawn) [Example 8, 1-Ethyl-1,3,4,9-tetrahydro-8-[(2-propynyl)oxy]-pyrano[3,4-b]indole-1-aceticAcid] | – | 34 | – |
